{
  "source": "paper PMC8881610",
  "about": "(Nature Communications, 2022)",
  "key": {"[1]": {"target": "GLP-1R (Homo sapiens, UniProt P43220, W214A)", "sequence (P43220 24-463 W214A)": "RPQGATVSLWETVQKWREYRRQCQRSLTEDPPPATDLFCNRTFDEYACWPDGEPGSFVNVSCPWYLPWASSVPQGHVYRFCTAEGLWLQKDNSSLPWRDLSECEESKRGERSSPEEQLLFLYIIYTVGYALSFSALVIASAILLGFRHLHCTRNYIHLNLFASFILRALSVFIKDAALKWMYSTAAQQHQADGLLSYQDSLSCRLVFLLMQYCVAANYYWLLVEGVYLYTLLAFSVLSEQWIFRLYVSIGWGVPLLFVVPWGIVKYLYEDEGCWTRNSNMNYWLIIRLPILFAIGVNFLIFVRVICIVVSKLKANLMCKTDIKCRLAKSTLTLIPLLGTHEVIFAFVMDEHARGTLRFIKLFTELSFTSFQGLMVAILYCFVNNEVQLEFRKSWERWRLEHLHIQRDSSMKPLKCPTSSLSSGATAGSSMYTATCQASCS", "experiment": "cAMP accumulation assay, GLP-1R WT, mutant or modified constructs", "format": "cell-based", "set-up": "Flag; expressed in transfected cells; host or cells: HEK293T", "details": "GLP-1R W214A, HEK293T; for Emax: HEK-293T", "procedure": "(§1) Human embryonic kidney 293 cells containing SV40 large T-antigen (HEK293T) were cultured in DMEM (Gibco) supplemented with 10% (v/v) fetal bovine serum (FBS, Gibco), 1 mM sodium pyruvate (Gibco) and 100 units/mL penicillin and 100 μg/mL streptomycin at 37 °C in 5% CO2. Chinese hamster ovary (CHO-K1) cells were cultured in F-12 (Gibco) containing 10% FBS, 100 units/mL penicillin and 100 μg/mL streptomycin at 37 °C in 5% CO2. For cAMP and receptor expression assays, HEK293T cells were seeded into 6-well cell culture plates at a density of 7 × 10^5 cells per well. After overnight incubation, cells were transfected with GIPR, GLP-1R or GCGR construct using Lipofectamine 2000 or Lipofectamine 3000 transfection reagent (Invitrogen). For whole-cell binding assay, CHO-K1 cells were seeded into 96-well fibronectin-treated cell culture plates at a density of 3 × 10^4 cells per well. After overnight incubation, cells were transfected with GIPR, GLP-1R or GCGR construct using Lipofectamine 2000 transfection reagent (Invitrogen). Following 24 h culturing, the transfected cells were ready for use.\n(§2) The human GLP-1R was modified with its native signal sequence (M1-P23) replaced by the HA signal peptide to facilitate receptor expression. To obtain a GLP-1R–Gs complex with good homogeneity and stability, we used the NanoBiT tethering strategy, in which the C terminus of GLP-1R was directly attached to LgBiT subunit followed by a TEV protease cleavage site and a double MBP tag. […] The constructs were cloned into both pcDNA3.1 and pFastBac vectors for functional assays in mammalian cells and protein expression in insect cells, respectively. Other constructs including the full-length and various mutants of human GLP-1R were cloned into pcDNA3.1 vector for cAMP accumulation and whole-cell binding assays.\n(§3) For GIPR, GLP-1R and GCGR, multi-targeting agonist stimulated cAMP accumulation was measured by a LANCE Ultra cAMP kit (PerkinElmer). After 24 h culture, the transfected cells were seeded into 384-well microtiter plates at a density of 3,000 cells per well in HBSS supplemented with 5 mM HEPES, 0.1% (w/v) BSA or 0.1% (w/v) casein and 0.5 mM 3-isobutyl-1-methylxanthine. The cells were stimulated with different concentrations of peptide agonists for 40 min at RT. Eu-cAMP tracer and ULight^TM-anti-cAMP were then diluted by cAMP detection buffer and added to the plates separately to terminate the reaction. Plates were incubated at RT for 1 h and the fluorescence intensity measured at 620 nm and […] by an EnVision multilabel plate reader (PerkinElmer)."}, "[2]": {"target": "GLP-1R (Homo sapiens, UniProt P43220, Y148A)", "sequence (P43220 24-463 Y148A)": "as the sequence (P43220 24-463 W214A) above, with Y125A, A191W counted along it", "experiment": "cAMP accumulation assay, GLP-1R WT, mutant or modified constructs", "format": "cell-based", "set-up": "Flag; expressed in transfected cells; host or cells: HEK293T", "details": "GLP-1R Y148A, HEK293T; for Emax: HEK-293T", "procedure": "as §1, §2, §3"}, "[3]": {"target": "T1, GIPR (Homo sapiens, UniProt P48546, Y36A)", "T1 sequence (P48546 22-466 Y36A)": "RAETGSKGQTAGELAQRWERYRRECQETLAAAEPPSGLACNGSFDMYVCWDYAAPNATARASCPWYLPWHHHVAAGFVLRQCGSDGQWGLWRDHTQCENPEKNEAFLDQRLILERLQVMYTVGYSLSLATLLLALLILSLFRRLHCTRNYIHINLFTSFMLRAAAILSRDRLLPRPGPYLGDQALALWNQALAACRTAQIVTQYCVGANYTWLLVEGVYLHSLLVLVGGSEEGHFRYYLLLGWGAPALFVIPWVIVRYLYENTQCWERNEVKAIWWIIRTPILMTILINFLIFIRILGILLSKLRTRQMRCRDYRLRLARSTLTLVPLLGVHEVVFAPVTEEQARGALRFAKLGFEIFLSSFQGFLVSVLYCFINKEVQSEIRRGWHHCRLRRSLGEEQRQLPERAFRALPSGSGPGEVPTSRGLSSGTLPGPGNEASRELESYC", "experiment": "Whole-cell binding assay, competition with 125I-GIP1-42", "set-up": "acylated tirzepatide to the full-length or modified; Flag; expressed in transfected cells", "details": "GIPR Y36A, CHO-K1; for IC50: read-out: binding pIC50 (converted)", "method_in_brief": "(§4)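 Transiently transfected CHO-K1 cells expressing WT or mutant GIPR were washed in F-12 with 0.1% BSA or 0.1% casein and 33 mM HEPES, then incubated 2 h at 37 °C. After ice-cold PBS washes, cells were lysed and bound radioactivity counted (CPM).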"}, "[4]": {"target": "T2, GIPR (Homo sapiens, UniProt P48546, R370A)", "T2 sequence (P48546 22-466 R370A)": "T1 sequence (P48546 22-466 Y36A) with A15Y, R349A", "experiment": "Whole-cell binding assay, competition with 125I-GIP1-42", "set-up": "acylated tirzepatide to the full-length or modified; Flag; expressed in transfected cells", "details": "GIPR R370A, CHO-K1", "method_in_brief": "as §4"}, "[5]": {"details": "read-out: cAMP pEC50 (converted)"}},
  "note": "Changes are numbered by the printed parent chain.",
  "data": [
    {"smiles": "CC[C@H](C)[C@H](NC(=O)[C@H](CC(C)C)NC(=O)[C@H](Cc1c[nH]c2ccccc12)NC(=O)[C@H](CCC(N)=O)NC(=O)[C@@H](NC(=O)[C@H](Cc1ccccc1)NC(=O)[C@H](C)NC(=O)[C@H](CCCCNC(=O)COCCOCCNC(=O)COCCOCCNC(=O)CC[C@H](NC(=O)CCCCCCCCCCCCCCCCCCC(=O)O)C(=O)O)NC(=O)[C@H](CCC(N)=O)NC(=O)[C@H](C)NC(=O)[C@@H](NC(=O)[C@H](CCCCN)NC(=O)[C@H](CC(=O)O)NC(=O)[C@H](CC(C)C)NC(=O)C(C)(C)NC(=O)[C@@H](NC(=O)[C@H](CO)NC(=O)[C@H](Cc1ccc(O)cc1)NC(=O)[C@H](CC(=O)O)NC(=O)[C@H](CO)NC(=O)[C@@H](NC(=O)[C@H](Cc1ccccc1)NC(=O)[C@@H](NC(=O)CNC(=O)[C@H](CCC(=O)O)NC(=O)C(C)(C)NC(=O)[C@@H](N)Cc1ccc(O)cc1)[C@@H](C)O)[C@@H](C)O)[C@@H](C)CC)[C@@H](C)CC)C(C)C)C(=O)N[C@@H](C)C(=O)NCC(=O)NCC(=O)N1CCC[C@H]1C(=O)N[C@@H](CO)C(=O)N[C@@H](CO)C(=O)NCC(=O)N[C@@H](C)C(=O)N1CCC[C@H]1C(=O)N1CCC[C@H]1C(=O)N1CCC[C@H]1C(=O)N[C@@H](CO)C(N)=O", "note": "[Tirzepatide]", "values": [
      {"measurement": "Emax", "setting": "[1]", "value": "99.1 ± 1.05", "unit": "%"},
      {"measurement": "Emax", "setting": "[2]", "value": "102 ± 2.33", "unit": "%"},
      {"measurement": "binding Span", "setting": "[3]", "value": "40.56 ± 12.64", "unit": "% WT"},
      {"measurement": "IC50", "setting": "[3]", "value": 275, "unit": "nM"},
      {"measurement": "binding Span", "setting": "[4]", "value": "10.40 ± 2.67", "unit": "% WT"},
      {"measurement": "binding pIC50", "setting": "[4]", "value": "N.B."}
    ]},
    {"smiles": "CCCCCCCCCCCCCCCC(=O)N[C@@H](CCC(=O)NCCCC[C@H](NC(=O)[C@H](CC(=O)O)NC(=O)[C@H](CO)NC(=O)[C@@H](NC(=O)[C@H](Cc1ccccc1)NC(=O)[C@@H](NC(=O)CNC(=O)[C@H](CCC(N)=O)NC(=O)C(C)(C)NC(=O)[C@@H](N)Cc1c[nH]cn1)[C@@H](C)O)[C@@H](C)O)C(=O)N[C@@H](CO)C(=O)N[C@@H](CCCCN)C(=O)N[C@@H](Cc1ccc(O)cc1)C(=O)N[C@@H](CC(C)C)C(=O)N[C@@H](CC(=O)O)C(=O)N[C@@H](CCC(=O)O)C(=O)N[C@@H](CCCNC(=N)N)C(=O)N[C@@H](C)C(=O)N[C@@H](C)C(=O)N[C@@H](CCC(N)=O)C(=O)N[C@@H](CC(=O)O)C(=O)N[C@@H](Cc1ccccc1)C(=O)N[C@H](C(=O)N[C@@H](CCC(N)=O)C(=O)N[C@@H](Cc1c[nH]c2ccccc12)C(=O)N[C@@H](CC(C)C)C(=O)N[C@@H](CC(C)C)C(=O)N[C@@H](CC(=O)O)C(=O)NCC(=O)NCC(=O)N1CCC[C@H]1C(=O)N[C@@H](CO)C(=O)N[C@@H](CO)C(=O)NCC(=O)N[C@@H](C)C(=O)N1CCC[C@H]1C(=O)N1CCC[C@H]1C(=O)N1CCC[C@H]1C(=O)N[C@@H](CO)C(N)=O)C(C)C)C(=O)O", "note": "[Peptide 20]", "values": [
      {"measurement": "EC50", "setting": "[1]; [5]", "value": 0.00977, "unit": "nM"},
      {"measurement": "Emax", "setting": "[1]", "value": "100.4 ± 0.94", "unit": "%"},
      {"measurement": "EC50", "setting": "[2]; [5]", "value": 0.00501, "unit": "nM"},
      {"measurement": "Emax", "setting": "[2]", "value": "101 ± 1.26", "unit": "%"},
      {"measurement": "binding Span", "setting": "[3]", "value": "48.19 ± 2.73", "unit": "% WT"},
      {"measurement": "IC50", "setting": "[3]", "value": 16.2, "unit": "nM"},
      {"measurement": "binding Span", "setting": "[4]", "value": "22.84 ± 2.01", "unit": "% WT"},
      {"measurement": "IC50", "setting": "[4]; read-out: binding pIC50 (converted)", "value": 5.62, "unit": "nM"}
    ]}
  ]
}
